Several values for one entry are separate records, joined by “and”; a condition that tells them apart may be missing. Equal entries are not always repeated. Toxic doses and inconclusive results are not listed.
Tested on: CD2F1 mice, L1210 leukemia ip, survival T/C
Experiment: NCI In Vivo Anticancer Drug Screen. Data for tumor model L1210 Leukemia (intraperitoneal) in CD2F1 (CDF1) mice
Conditions: higher = longer survival
Method in brief: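 Each value reflects a quotient of treated over vehicle control outcomes in mice with a transplanted tumor.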

[1] = endpoint: mean survival time, dose: 100.0 mg/kg/injection, schedule: Q04DX003 (ip), vehicle: saline with Tween-80
[2] = endpoint: mean survival time, dose: 200.0 mg/kg/injection, schedule: Q04DX003 (ip), vehicle: saline with Tween-80
[3] = endpoint: mean survival time, dose: 400.0 mg/kg/injection, schedule: Q04DX003 (ip), vehicle: saline with Tween-80
[4] = endpoint: mean survival time, dose: 100.0 mg/kg/injection, schedule: Q04DX003 (ip), vehicle: saline
[5] = endpoint: mean survival time, dose: 200.0 mg/kg/injection, schedule: Q04DX003 (ip), vehicle: saline
[6] = endpoint: mean survival time, dose: 400.0 mg/kg/injection, schedule: Q04DX003 (ip), vehicle: saline
[7] = endpoint: mean survival time, dose: 100.0 mg/kg/injection, schedule: Q04DX002 (ip), vehicle: saline with Tween-80
[8] = endpoint: mean survival time, dose: 200.0 mg/kg/injection, schedule: Q04DX002 (ip), vehicle: saline with Tween-80

Cc1cccc(/C=N\OCCc2ccccc2)n1
T/C (endpoint: mean survival time, dose: 100.0 mg/kg/injection, schedule: Q01DX009 (ip), vehicle: saline with Tween-80): 94 % of control | T/C [1]: 100 % of control | T/C (endpoint: mean survival time, dose: 200.0 mg/kg/injection, schedule: Q01DX009 (ip), vehicle: saline with Tween-80): 98 % of control | T/C [2]: 96 % of control | T/C (endpoint: mean survival time, dose: 400.0 mg/kg/injection, schedule: Q01DX009 (ip), vehicle: saline with Tween-80): 93 % of control | T/C [3]: 91 % of control

COC1N(C2CC(O)C(CO)O2)C(=O)NC(=O)C1(F)Br (stereo unspecified)
T/C (endpoint: mean survival time, dose: 1.56 mg/kg/injection, schedule: Q01DX009 (ip), vehicle: saline): 97 % of control and 108 % of control | T/C (endpoint: mean survival time, dose: 3.12 mg/kg/injection, schedule: Q01DX009 (ip), vehicle: saline): 115 % of control and 117 % of control | T/C (endpoint: mean survival time, dose: 6.25 mg/kg/injection, schedule: Q01DX009 (ip), vehicle: saline): 112 % of control | T/C (endpoint: mean survival time, dose: 12.5 mg/kg/injection, schedule: Q01DX009 (ip), vehicle: saline): 109 % of control | T/C [4]: 110 % of control | T/C [5]: 122 % of control

CN(CC(=O)C(C)(C)C)c1ccccc1
T/C [4]: 103 % of control | T/C [5]: 97 % of control | T/C [6]: 103 % of control

C=Cc1cc(OC)c2c(c1)c(=O)oc1c2cc(OC)c2c(O)ccc(C3OC(C)C(O)C(C)(O)C3O)c21 (stereo unspecified)
T/C (endpoint: median survival time, dose: 5.0 mg/kg/injection, schedule: Q01DX009 (ip), vehicle: DMSO): 107 % of control | T/C (endpoint: median survival time, dose: 10.0 mg/kg/injection, schedule: Q01DX009 (ip), vehicle: DMSO): 116 % of control and 111 % of control | T/C (endpoint: median survival time, dose: 10.0 mg/kg/injection, schedule: Q01DX009 (ip), vehicle: other): 118 % of control | T/C (endpoint: median survival time, dose: 20.0 mg/kg/injection, schedule: Q01DX009 (ip), vehicle: DMSO): 116 % of control and 122 % of control | T/C (endpoint: median survival time, dose: 80.0 mg/kg/injection, schedule: Q01DX009 (ip), vehicle: DMSO): 155 % of control | T/C (endpoint: median survival time, dose: 160.0 mg/kg/injection, schedule: Q01DX009 (ip), vehicle: DMSO): 120 % of control | T/C (endpoint: median survival time, dose: 160.0 mg/kg/injection, schedule: Q01DX009 (ip), vehicle: other): 113 % of control

Clc1nc2ccccc2[nH]1
T/C [4]: 98 % of control | T/C [5]: 100 % of control | T/C [6]: 90 % of control

NNc1n[nH]c(=S)n1N
T/C (endpoint: mean survival time, dose: 6.25 mg/kg/injection, schedule: Q01DX009 (ip), vehicle: saline with Tween-80): 103 % of control | T/C (endpoint: mean survival time, dose: 12.5 mg/kg/injection, schedule: Q01DX009 (ip), vehicle: saline with Tween-80): 102 % of control | T/C (endpoint: mean survival time, dose: 25.0 mg/kg/injection, schedule: Q01DX009 (ip), vehicle: saline with Tween-80): 104 % of control and 107 % of control

CC(=O)Nc1ccc2cc3ccc(NC(C)=O)cc3nc2c1
T/C (endpoint: mean survival time, dose: 100.0 mg/kg/injection, schedule: Q04DX002 (ip), vehicle: saline): 98 % of control | T/C (endpoint: mean survival time, dose: 200.0 mg/kg/injection, schedule: Q04DX002 (ip), vehicle: saline): 98 % of control | T/C (endpoint: mean survival time, dose: 400.0 mg/kg/injection, schedule: Q04DX002 (ip), vehicle: saline): 98 % of control

C1=CCC2C3C=CC(CC3)C2C1 (stereo unspecified)
T/C (endpoint: mean survival time, dose: 75.0 mg/kg/injection, schedule: Q01DX001 (ip), vehicle: saline): 86 % of control | T/C (endpoint: mean survival time, dose: 150.0 mg/kg/injection, schedule: Q01DX001 (ip), vehicle: saline): 95 % of control | T/C (endpoint: mean survival time, dose: 300.0 mg/kg/injection, schedule: Q01DX001 (ip), vehicle: saline): 97 % of control

Cc1ccc(S(=O)(=O)/N=S(\C)c2ccc(Cl)cc2)cc1 (stereo unspecified)
T/C [1]: 97 % of control | T/C [2]: 108 % of control | T/C [3]: 90 % of control

CCCCCOC(=O)COc1ccc(F)cc1F
T/C [7]: 101 % of control | T/C [8]: 105 % of control | T/C (endpoint: mean survival time, dose: 400.0 mg/kg/injection, schedule: Q04DX002 (ip), vehicle: saline with Tween-80): 90 % of control

NCCCCC(N)C(=O)O (stereo unspecified)
T/C (endpoint: median survival time, dose: 3.13 mg/kg/injection, schedule: Q04DX002 (ip), vehicle: saline): 100 % of control | T/C (endpoint: median survival time, dose: 6.25 mg/kg/injection, schedule: Q04DX002 (ip), vehicle: saline): 94 % of control | T/C (endpoint: median survival time, dose: 25.0 mg/kg/injection, schedule: Q04DX002 (ip), vehicle: saline): 105 % of control | T/C (endpoint: median survival time, dose: 50.0 mg/kg/injection, schedule: Q04DX002 (ip), vehicle: saline): 117 % of control

CCN=C(NCC)SCCSC(=NCC)NCC
T/C [7]: 104 % of control | T/C [8]: 102 % of control

Nc1nc(N)nc(-c2ccccc2)n1
T/C [1]: 96 % of control | T/C [2]: 98 % of control | T/C [3]: 105 % of control

CC(C)(C)N[P+](Cc1ccccc1)(NC(C)(C)C)c1ccccc1
T/C (endpoint: mean survival time, dose: 12.5 mg/kg/injection, schedule: Q04DX003 (ip), vehicle: saline with Tween-80): 90 % of control | T/C (endpoint: mean survival time, dose: 25.0 mg/kg/injection, schedule: Q04DX003 (ip), vehicle: saline with Tween-80): 90 % of control

Source: PubChem BioAssay AID256 (DTP/NCI, 2004)
